Experimental data taken from US6737383B1, “Herbicidal oxadiazolidines” (priority 1999, dated 2004).

Assays:
corn = test: Test B pre/postemergence corn; assay type: in vivo, Zea mays; details: for Corn plant response rating: Postemergence; for Plant response rating, Corn: Preemergence
Outline: (§1)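 Test chemicals in a non-phytotoxic solvent mixture with surfactant were sprayed preemergence onto planted seeds and postemergence onto plants 2 to 18 cm tall (1- to 4-leaf stage). After twelve to sixteen days in a greenhouse, injury was visually rated against untreated controls from 0 (no effect) to 10 (complete control).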

duck salad = test: Test B flood test duck salad; assay type: in vivo, Heteranthera limosa
Outline: (§2)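 Flood test on plants grown to the 2-leaf stage; treated plants kept in greenhouse twelve to sixteen days, then visually rated against controls on a 0 (no effect) to 10 (complete control) scale.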

cocklebur = test: Test B pre/postemergence cocklebur; assay type: in vivo, Xanthium strumarium
Outline: as §1

velvetleaf = test: Test B pre/postemergence velvetleaf; assay type: in vivo, Abutilon theophrasti
Outline: as §1

bamyardgrass = test: Test B flood test barnyardgrass; assay type: in vivo, Echinochloa crus-galli
Outline: as §2

surinam grass = test: Test B pre/postemergence surinam grass; assay type: in vivo, Brachiaria decumbens
Outline: as §1

sugar beet = test: Test B pre/postemergence sugar beet; assay type: in vivo, Beta vulgaris
Outline: as §1

blackgrass = test: Test B pre/postemergence blackgrass; assay type: in vivo, Alopecurus myosuroides
Outline: as §1

morningglory = test: Test B pre/postemergence morningglory; assay type: in vivo, Ipomoea hederacea; details: for Morningglory plant response rating: Postemergence; for Plant response rating, Morningglory: Preemergence
Outline: as §1

giant foxtail = test: Test B pre/postemergence giant foxtail; assay type: in vivo, Setaria faberii
Outline: as §1

soybean = test: Test B pre/postemergence soybean; assay type: in vivo, Glycine max
Outline: as §1

pigweed = test: Test B pre/postemergence pigweed; assay type: in vivo, Amaranthus retroflexus
Outline: as §1

rape = test: Test B pre/postemergence rape; assay type: in vivo, Brassica napus
Outline: as §1

purple nutsedge = test: Test B pre/postemergence purple nutsedge; assay type: in vivo, Cyperus rotundus
Outline: as §1

bedstraw = test: Test B pre/postemergence bedstraw; assay type: in vivo, Galium aparine; details: for Bedstraw plant response rating: Postemergence; for Plant response rating, Bedstraw: Preemergence
Outline: as §1

smallflower flatsedge = test: Test B flood test smallflower flatsedge; assay type: in vivo, Cyperus difformis
Outline: as §2

[1] = Rate 62 g/ha, scale 0 to 10, 0 is no effect, 10 is complete control
[2] = Rate 250 g/ha, scale 0 to 10, 0 no effect, 10 complete control
[3] = Rate 125 g/ha, scale 0 to 10 (0 no effect, 10 complete control)
[4] = Rate 250 g/ha, scale of 0 to 10 where 0 is no effect and 10 is complete control
[5] = Rate 125 g/ha, scale 0 to 10, 0 no effect, 10 complete control
[6] = Rate 500 g/ha, scale 0 to 10, 0 no effect, 10 complete control
[7] = Postemergence, Rate 62 g/ha, scale 0 to 10, 0 is no effect, 10 is complete control
[8] = Rate 125 g/ha, Postemergence section (flood test species), scale 0 to 10, 0 no effect, 10 complete control
[9] = Rate 500 g/ha, listed under Postemergence (flood test species), scale 0 to 10, 0 no effect, 10 complete control
[10] = flood test, listed under Postemergence, Rate 250 g/ha, scale 0 to 10, 0 no effect, 10 complete control
[11] = Postemergence, Rate 250 g/ha, scale 0 to 10, 0 no effect, 10 complete control
[12] = Preemergence, Rate 62 g/ha, scale 0 to 10, 0 is no effect, 10 is complete control
[13] = Preemergence, Rate 250 g/ha, scale of 0 to 10 where 0 is no effect and 10 is complete control
[14] = Preemergence, Rate 500 g/ha, scale 0 (no effect) to 10 (complete control)
[15] = Rate 125 g/ha, Postemergence, scale 0 to 10, 0 no effect, 10 complete control
[16] = Rate 500 g/ha, Postemergence, scale 0 to 10, 0 no effect, 10 complete control
[17] = Preemergence, Rate 125 g/ha, scale 0 to 10 (0 no effect, 10 complete control)

## Cc1cccc(Cl)c1-n1c(=O)on(C(=O)N(c2ccc(F)cc2)C(C)C)c1=O [Compound 53]
corn; [1]
  Corn plant response rating: 0
  Plant response rating, Corn: 0
corn; [2]
  Corn plant response rating: 0
corn; [3]
  Plant response rating, Corn: 0
corn; [4]
  Plant response rating, Corn: 0
corn; [5]
  Corn plant response rating: 0
corn; [6]
  Corn plant response rating: 0
Duck salad; [7]
  Ducksalad plant response rating: 0
Duck salad; [8]
  Ducksalad plant response rating: 0
Duck salad; [9]
  Ducksalad plant response rating: 0
Duck salad; [10]
  Ducksalad plant response rating: 0
cocklebur; [7]
  Cocklebur plant response rating: 0
cocklebur; [11]
  Cocklebur plant response rating: 4
cocklebur; [12]
  Plant response rating, Cocklebur: 0
cocklebur; [13]
  Plant response rating, Cocklebur: 0
cocklebur; [14]
  Cocklebur plant response rating: — 0 0 0 0
cocklebur; [15]
  Cocklebur plant response rating: 0
cocklebur; [16]
  Cocklebur plant response rating: 4
velvetleaf; [7]
  Velvetleaf plant response rating: 0
velvetleaf; [11]
  Velvetleaf plant response rating: 1
velvetleaf; [12]
  Plant response rating, Velvetleaf: 0
velvetleaf; [17]
  Plant response rating, Velvetleaf: 0
velvetleaf; [13]
  Plant response rating, Velvetleaf: 0
velvetleaf; [14]
  Velvetleaf plant response rating: 0
velvetleaf; [15]
  Velvetleaf plant response rating: 0
velvetleaf; [16]
  Velvetleaf plant response rating: 1
bamyardgrass; [7]
  Barnyardgrass plant response rating: 0
bamyardgrass; [8]
  Barnyardgrass plant response rating: 0
bamyardgrass; [9]
  Barnyardgrass plant response rating: 0
bamyardgrass; [10]
  Barnyardgrass plant response rating: 0
Surinam grass; [7]
  B. signalgrass plant response rating: 0
Surinam grass; [11]
  B. signalgrass plant response rating: 0
Surinam grass; [12]
  Plant response rating, B. signalgrass: 0
Surinam grass; [17]
  Plant response rating, B. signalgrass: 0
Surinam grass; [13]
  Plant response rating, B. signalgrass: 2
Surinam grass; [14]
  B. signalgrass plant response rating: 3
Surinam grass; [15]
  B. signalgrass plant response rating: 0
Surinam grass; Rate 500 g/ha, Postemergence, scale of 0 to 10 where 0 is no effect and 10 is complete control
  B. signalgrass plant response rating: 0
Sugar beet; [7]
  Sugarbeets plant response rating: 0
Sugar beet; [11]
  Sugarbeets plant response rating: 1
Sugar beet; [12]
  Plant response rating, Sugarbeets: 0
Sugar beet; [17]
  Plant response rating, Sugarbeets: 0
Sugar beet; [13]
  Plant response rating, Sugarbeets: 0
Sugar beet; [14]
  Sugarbeets plant response rating: 3
Sugar beet; [15]
  Sugarbeets plant response rating: 0
Sugar beet; [16]
  Sugarbeets plant response rating: 2
blackgrass; [7]
  Blackgrass plant response rating: 0
blackgrass; [11]
  Blackgrass plant response rating: 0
blackgrass; [12]
  Plant response rating, Blackgrass: 0
blackgrass; [17]
  Plant response rating, Blackgrass: 1
blackgrass; [13]
  Plant response rating, Blackgrass: 1
blackgrass; [14]
  Blackgrass plant response rating: 4
blackgrass; [15]
  Blackgrass plant response rating: 0
blackgrass; [16]
  Blackgrass plant response rating: 0
morningglory; [1]
  Morningglory plant response rating: 1
  Plant response rating, Morningglory: 0
morningglory; [2]
  Morningglory plant response rating: 5
morningglory; [3]
  Plant response rating, Morningglory: 0
morningglory; [4]
  Plant response rating, Morningglory: 0
morningglory; [5]
  Morningglory plant response rating: 1
morningglory; [6]
  Morningglory plant response rating: 6
Giant foxtail; [7]
  Giant foxtail plant response rating: 0
Giant foxtail; [11]
  Giant foxtail plant response rating: 3
Giant foxtail; [12]
  Plant response rating, Giant foxtail: 3
Giant foxtail; [17]
  Plant response rating, Giant foxtail: 3
Giant foxtail; [13]
  Plant response rating, Giant foxtail: 8
Giant foxtail; [14]
  Giant foxtail plant response rating: 10
Giant foxtail; [15]
  Giant foxtail plant response rating: 3
Giant foxtail; [16]
  Giant foxtail plant response rating: 3
soybean; [7]
  Soybean plant response rating: 3
soybean; [11]
  Soybean plant response rating: 3
soybean; [12]
  Plant response rating, Soybean: 0
soybean; [17]
  Plant response rating, Soybean: 0
soybean; [13]
  Plant response rating, Soybean: 0
soybean; [14]
  Soybean plant response rating: 0
soybean; [15]
  Soybean plant response rating: 3
soybean; [16]
  Soybean plant response rating: 3
pigweed; [7]
  Redroot pigweed plant response rating: 1
pigweed; [11]
  Redroot pigweed plant response rating: 6
pigweed; [12]
  Plant response rating, Redroot pigweed: 0
pigweed; [17]
  Plant response rating, Redroot pigweed: 0
pigweed; [13]
  Plant response rating, Redroot pigweed: 0
pigweed; [14]
  Redroot pigweed plant response rating: 3
pigweed; [15]
  Redroot pigweed plant response rating: 3
pigweed; [16]
  Redroot pigweed plant response rating: 10
rape; [7]
  Rape plant response rating: 0
rape; [11]
  Rape plant response rating: 0
rape; [12]
  Plant response rating, Rape: 0
rape; [17]
  Plant response rating, Rape: 0
rape; [13]
  Plant response rating, Rape: 0
rape; [14]
  Rape plant response rating: 0
rape; [15]
  Rape plant response rating: 0
rape; [16]
  Rape plant response rating: 3
Purple nutsedge; [7]
  Nutsedge plant response rating: 0
Purple nutsedge; [11]
  Nutsedge plant response rating: 0
Purple nutsedge; [12]
  Plant response rating, Nutsedge: 0
Purple nutsedge; [17]
  Plant response rating, Nutsedge: 0
Purple nutsedge; [13]
  Plant response rating, Nutsedge: 0
Purple nutsedge; [14]
  Nutsedge plant response rating: 0
Purple nutsedge; [15]
  Nutsedge plant response rating: 0
Purple nutsedge; [16]
  Nutsedge plant response rating: 0
bedstraw; [1]
  Bedstraw plant response rating: 2
  Plant response rating, Bedstraw: 0
bedstraw; [3]
  Plant response rating, Bedstraw: 0
bedstraw; [4]
  Plant response rating, Bedstraw: 0
bedstraw; [5]
  Bedstraw plant response rating: 3
Smallflower flatsedge; [7]
  S. Flatsedge plant response rating: 0
Smallflower flatsedge; [8]
  S. Flatsedge plant response rating: 0
Smallflower flatsedge; [9]
  S. Flatsedge plant response rating: 0
Smallflower flatsedge; [10]
  S. Flatsedge plant response rating: 0
